Legend:
Assay type in all cases: in vivo
[1] = test system: ABUTH: Abutilon theophrasti; experiment: Post-emergence herbicidal efficacy at 1280 g/ha, ABUTH; settings: rated visually after about 3 weeks vs untreated controls, 100% = plants have died, 0% = like control plants
Description: (§1) Seeds of mono- and dicotyledonous weed plants were placed in plastic pots in sandy loam soil (doubly sown with in each case one species of mono- or dicotyledonous weed plants per pot), covered with soil and cultivated in a greenhouse under controlled growth conditions. 2 to 3 weeks after sowing, the test plants were treated at the one-leaf stage. The compounds of the invention, formulated in the form of wettable powders (WP) or as emulsion concentrates (EC), were applied to the green parts of the plants as aqueous suspension or emulsion with addition of 0.5% additive at a water application rate equivalent to 600 litres per hectare. After the test plants had been kept in the greenhouse under optimum growth conditions for about 3 weeks, the activity of the preparations was rated visually in comparison to untreated controls. For example, 100% activity=the plants have died, 0% activity=like control plants. Tables A1 to A12 below show the effects of selected compounds of the general formula (I) according to Table 1 on various harmful plants and at an application rate corresponding to 1280 g/ha, which were obtained by the trial procedure specified above.

[2] = test system: AMARE: Amaranthus retroflexus; experiment: Post-emergence herbicidal efficacy at 1280 g/ha, AMARE; settings: rated visually after about 3 weeks vs untreated controls, 100% = plants have died, 0% = like control plants
Description: as §1

[3] = test system: ECHCG: Echinochloa crus-galli; experiment: Post-emergence herbicidal efficacy at 1280 g/ha, ECHCG; settings: rated visually after about 3 weeks vs untreated controls, 100% = plants have died, 0% = like control plants
Description: as §1

KCHSC: Kochia scoparia = experiment: Post-emergence herbicidal efficacy at 1280 g/ha, KCHSC; settings: visual rating about 3 weeks after treatment vs untreated controls
Description: as §1

POAAN: Poa annua [4] = experiment: Post-emergence herbicidal efficacy at 1280 g/ha, POAAN; settings: visual rating about 3 weeks after treatment vs untreated controls
Description: as §1

STEME: Stellaria media [5] = experiment: Post-emergence herbicidal efficacy at 1280 g/ha, STEME; settings: visual rating about 3 weeks after treatment vs untreated controls
Description: as §1

VERPE: Veronica persica = experiment: Post-emergence herbicidal efficacy at 1280 g/ha, VERPE; settings: visual rating about 3 weeks after treatment vs untreated controls
Description: as §1

[6] = test system: ABUTH: Abutilon theophrasti; experiment: Pre-emergence herbicide efficacy at 1280 g/ha, ABUTH; settings: visual scoring after about 3 weeks vs untreated controls
Excerpt: (§2) Seeds of mono- and dicotyledonous weed plants were placed in plastic pots in sandy loam soil (doubly sown with one species each of mono- or dicotyledonous weed plants per pot) and covered with soil. The compounds of the invention, formulated in the form of wettable powders (WP) or as emulsion concentrates (EC), were then applied to the surface of the covering soil as aqueous suspension or emulsion with addition of 0.5% additive at a water application rate of 600 litres per hectare (converted). After the treatment, the pots were placed in a greenhouse and kept under good growth conditions for the test plants. After about 3 weeks, the efficacy of the preparations was scored visually in comparison with untreated controls as percentages. For example, 100% activity=the plants have died, 0% activity=like control plants. Tables C1 to C12 below show the effects of selected compounds of the general formula (I) according to Table 1 on various harmful plants and at an application rate corresponding to 1280 g/ha, which were obtained by the trial procedure specified above.

[7] = test system: AMARE: Amaranthus retroflexus; experiment: Pre-emergence herbicide efficacy at 1280 g/ha, AMARE; settings: visual scoring after about 3 weeks vs untreated controls
Excerpt: as §2

[8] = test system: DIGSA: Digitaria sanguinalis; experiment: Pre-emergence herbicide efficacy at 1280 g/ha, DIGSA; settings: visual scoring after about 3 weeks vs untreated controls
Excerpt: as §2

[9] = test system: ECHCG: Echinochloa crus-galli; experiment: Pre-emergence herbicide efficacy at 1280 g/ha, ECHCG; settings: visual scoring after about 3 weeks vs untreated controls
Excerpt: as §2

SETVI: Setaria viridis = experiment: Pre-emergence herbicide efficacy at 1280 g/ha, SETVI; settings: visual scoring vs untreated controls
Excerpt: as §2

POAAN: Poa annua [10] = experiment: Pre-emergence herbicide efficacy at 1280 g/ha, POAAN; settings: visual scoring after about 3 weeks vs untreated controls
Excerpt: as §2

STEME: Stellaria media [11] = experiment: Pre-emergence herbicide efficacy at 1280 g/ha, STEME; settings: visual scoring vs untreated controls
Excerpt: as §2

[12] = test system: AMARE: Amaranthus retroflexus; experiment: Post-emergence herbicidal efficacy at 80 g/ha, AMARE; settings: visual rating about 3 weeks after treatment vs untreated controls
Description: Seeds of monocotyledonous and dicotyledonous weeds and crop plants were placed in sandy loam in plastic or organic planting pots, covered with soil and cultivated in a greenhouse under controlled growth conditions. 2 to 3 weeks after sowing, the test plants were treated at the one-leaf stage. The compounds of the invention, formulated in the form of wettable powders (WP) or as emulsion concentrates (EC), were then sprayed onto the green parts of the plants as aqueous suspension or emulsion with addition of 0.5% additive at a water application rate of 600 l/ha (converted). After the test plants had been kept in the greenhouse under optimum growth conditions for about 3 weeks, the activity of the preparations was rated visually in comparison to untreated controls. For example, 100% activity=the plants have died, 0% activity=like control plants. Tables B1 to B10 below show the effects of selected compounds of the general formula (I) according to Table 1 on various harmful plants and an application rate corresponding to 80 g/ha, which were obtained by the experimental procedure mentioned above.

[13] = test system: AMARE: Amaranthus retroflexus; experiment: Pre-emergence herbicide efficacy at 80 g/ha, AMARE; settings: scored visually after about 3 weeks
Excerpt: Seeds of monocotyledonous and dicotyledonous weed plants and crop plants were placed in plastic or organic planting pots and covered with soil. The compounds of the invention, formulated in the form of wettable powders (WP) or as emulsion concentrates (EC), were then applied to the surface of the covering soil as aqueous suspension or emulsion with addition of 0.5% additive at a water application rate equivalent to 600 l/ha. After the treatment, the pots were placed in a greenhouse and kept under good growth conditions for the test plants. After about 3 weeks, the efficacy of the preparations was scored visually in comparison with untreated controls as percentages. For example, 100% activity=the plants have died, 0% activity=like control plants. Tables D1 to D12 below show the effects of selected compounds of the general formula (I) according to Table 1 on various harmful plants and an application rate corresponding to 80 g/ha, which were obtained by the experimental procedure mentioned above.

Structure (SMILES) | Post-emergence efficacy at 1280 g/ha against ABUTH in % [1] [%] | Post-emergence efficacy at 1280 g/ha against AMARE in % [2] [%] | Post-emergence efficacy at 1280 g/ha against ECHCG in % [3] [%] | Post-emergence efficacy against KCHSC (KCHSC: Kochia scoparia) [%] | Post-emergence efficacy against POAAN (POAAN: Poa annua [4]) [%] | Post-emergence efficacy against STEME (STEME: Stellaria media [5]) [%] | Post-emergence efficacy against VERPE (VERPE: Veronica persica) [%] | Pre-emergence efficacy against ABUTH [6] [%] | Pre-emergence efficacy against AMARE [7] [%] | Pre-emergence efficacy against DIGSA [8] [%] | Pre-emergence efficacy against ECHCG [9] [%] | Pre-emergence efficacy against SETVI in % (SETVI: Setaria viridis) [%] | Pre-emergence efficacy against POAAN (POAAN: Poa annua [10]) [%] | Pre-emergence efficacy against STEME in % (STEME: Stellaria media [11]) [%] | Post-emergence efficacy against AMARE [12] [%] | Pre-emergence efficacy against AMARE in % [13] [%]
Fc1ccc(Cc2ccccc2Cc2ccc(Cl)cn2)cc1 [Example 1-96] | 100 | 100 | 90 | 90 | 90 | 90 | 100 | 100 | 100 | 100 | 90 | 90 | – | – | – | –
Fc1cc(Cl)cnc1Oc1ccccc1Cc1ccc(Cl)cn1 [Example 1-101] | 90 | 100 | 90 | – | 100 | 90 | 100 | 90 | 100 | 100 | 100 | 100 | 100 | 100 | – | –
Fc1ccc(Sc2ccccc2Cc2ncc(Cl)cc2F)cc1 [Example 1-106] | 90 | 100 | 90 | 90 | 100 | 100 | 100 | – | 90 | – | – | – | – | – | – | –
Fc1cccc(Cc2ncc(Cl)cn2)c1Oc1ncc(Cl)cn1 [Example 1-151] | – | – | – | – | – | – | – | – | – | – | – | – | – | – | 80 | 80
Fc1cnc(Cc2cccc(F)c2Oc2ncc(F)cn2)nc1 [Example 1-153] | – | – | – | – | – | – | – | – | – | – | – | – | – | – | 90 | 100
Cc1nc(-c2ccccc2Cc2ncc(Cl)cn2)no1 [Example 1-159] | – | – | – | – | – | – | – | – | – | – | – | – | – | – | 80 | 90
FC(F)c1nc(-c2ccccc2Cc2ncc(Cl)cn2)no1 [Example 1-160] | – | – | – | – | – | – | – | – | – | – | – | – | – | – | 100 | 100

Source: patent US20250221410A1, “SUBSTITUTED 2-C-AZINES AND SALTS THEREOF, AND USE THEREOF AS HERBICIDAL ACTIVE SUBSTANCES” (BAYER AKTIENGESELLSCHAFT, priority 2022, published 2025)
